Results published in patent US8952024B2, “Herbicidal pyrimidone derivatives” (E I du Pont de Nemours and Company, priority 2009, dated 2015).

What was measured:
Format in all cases: in vivo
[1] = test system: barnyardgrass (Echinochloa crus-galli); test: Test A pre-/postemergence plant response
Method in brief: (§1)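 Seeds planted in loam soil/sand blend; test chemicals in non-phytotoxic solvent mixture with surfactant applied as directed soil spray preemergence and, concurrently, postemergence to plants 2–10 cm tall at one- to two-leaf stage. Greenhouse ~10 days; visual injury vs untreated controls, 0 (no effect) to 100 (complete control).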

[2] = test system: giant foxtail (Setaria faberii); test: Test A pre-/postemergence plant response
Method in brief: as §1

[3] = test system: pigweed (Amaranthus retroflexus); test: Test A pre-/postemergence plant response
Method in brief: as §1

[4] = test system: wheat (Triticum aestivum); test: Test A pre-/postemergence plant response
Method in brief: as §1

[5] = test system: velvetleaf (Abutilon theophrasti); test: Test A pre-/postemergence plant response
Method in brief: as §1

[6] = test system: large crabgrass (Digitaria sanguinalis); test: Test A pre-/postemergence plant response
Method in brief: as §1

[7] = test system: morningglory (Ipomoea spp.); test: Test A pre-/postemergence plant response
Method in brief: as §1

corn (Zea mays) = test: Test A pre-/postemergence plant response
Method in brief: as §1

[8] = test system: umbrella sedge (Cyperus difformis); test: Test B flooded paddy test; conditions: for Plant response rating, Sedge, Umbrella: Flood (flooded paddy test), 13 to 15 days
Method in brief: (§2)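 Visual scores run from 0 (no effect) to 100 (complete control), assigned by comparison with controls 13 to 15 days after treatment. Test compounds went straight into water standing 3 cm above the soil, around plants at the 2-leaf stage kept in a greenhouse.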

[9] = test system: barnyardgrass (Echinochloa crus-galli); test: Test B flooded paddy test; conditions: for Plant response rating, Barnyardgrass: Flood (flooded paddy test), 13 to 15 days
Method in brief: as §2

rice (Oryza sativa) = test: Test B flooded paddy test; conditions: for Plant response rating, Rice: Flood (flooded paddy test), 13 to 15 days
Method in brief: as §2

[10] = test system: ducksalad (Heteranthera limosa); test: Test B flooded paddy test; conditions: for Plant response rating, Ducksalad: Flood (flooded paddy test), 13 to 15 days
Method in brief: as §2

[11] = Postemergence, 125 g ai/ha, 0 to 100 scale where 0 is no effect and 100 is complete control
[12] = Postemergence, 500 g ai/ha, visual injury, 0 to 100 scale (0 no effect, 100 complete control), approx. ten days
[13] = Preemergence, 125 g ai/ha, 0 to 100 scale, 0 = no effect, 100 = complete control
[14] = Preemergence, 500 g ai/ha, 0 to 100 scale, 0 = no effect, 100 = complete control
[15] = 250 g ai/ha, flooded paddy test, visual rating on 0 to 100 scale (0 no effect, 100 complete control) after 13 to 15 days
[16] = 62 g ai/ha, scale of 0 to 100 where 0 is no effect and 100 is complete control
[17] = 125 g ai/ha, scale 0 to 100, 0 is no effect, 100 is complete control
[18] = Flood, 31 g ai/ha, scale 0 to 100 (0 no effect, 100 complete control)

Structure (SMILES): CCc1ccc(-n2c(-c3cccc(C)c3)ncc(C(=O)C3=C(O)CCCC3=O)c2=O)cc1 [Compound 213]
- Plant response rating, Barnyardgrass [1, 11]: 20
- Barnyardgrass plant response rating [1, 12]: 100
- Plant response rating, Barnyardgrass [1, 13]: 0
- Plant response rating, Barnyardgrass [1, 14]: 30
- Plant response rating, Foxtail, Giant [2, 11]: 10
- Foxtail, Giant plant response rating [2, 12]: 40
- Plant response rating, Foxtail, Giant [2, 13]: 10
- Plant response rating, Foxtail, Giant [2, 14]: 30
- Plant response rating, Pigweed [3, 11]: 80
- Pigweed plant response rating [3, 12]: 100
- Plant response rating, Pigweed [3, 13]: 50
- Plant response rating, Pigweed [3, 14]: 90
- Plant response rating, Wheat [4, 11]: 0
- Wheat plant response rating [4, 12]: 0
- Plant response rating, Wheat [4, 13]: 0
- Plant response rating, Wheat [4, 14]: 0
- Plant response rating, Velvetleaf [5, 11]: 70
- Velvetleaf plant response rating [5, 12]: 60
- Plant response rating, Velvetleaf [5, 13]: 40
- Plant response rating, Velvetleaf [5, 14]: 60
- Plant response rating, Crabgrass, Large [6, 11]: 20
- Crabgrass, Large plant response rating [6, 12]: 50
- Plant response rating, Crabgrass, Large [6, 13]: 0
- Plant response rating, Crabgrass, Large [6, 14]: 50
- Plant response rating, Morningglory [7, 11]: 60
- Morningglory plant response rating [7, 12]: 100
- Plant response rating, Morningglory [7, 14]: 60
- Plant response rating, Corn (corn (Zea mays); [11]): 0
- Corn plant response rating (corn (Zea mays); [12]): 20
- Plant response rating, Corn (corn (Zea mays); [13]): 0
- Plant response rating, Corn (corn (Zea mays); [14]): 0
- Plant response rating, Flood, Sedge, Umbrella [8, 15]: 90
- Plant response rating, Sedge, Umbrella [8, 16]: 80
- Plant response rating, Sedge, Umbrella [8, 17]: 85
- Sedge, Umbrella plant response rating [8, 18]: 65
- Plant response rating, Flood, Barnyardgrass [9, 15]: 30
- Plant response rating, Barnyardgrass [9, 16]: 0
- Plant response rating, Barnyardgrass [9, 17]: 0
- Barnyardgrass plant response rating [9, 18]: 0
- Plant response rating, Flood, Rice (rice (Oryza sativa); [15]): 20
- Plant response rating, Rice (rice (Oryza sativa); [16]): 0
- Plant response rating, Rice (rice (Oryza sativa); [17]): 0
- Rice plant response rating (rice (Oryza sativa); [18]): 0
- Plant response rating, Flood, Ducksalad [10, 15]: 100
- Plant response rating, Ducksalad [10, 16]: 85
- Plant response rating, Ducksalad [10, 17]: 90
- Ducksalad plant response rating [10, 18]: 75
